Assay results published in patent publication US20080175831A1 (priority 2006, published 2008).

Key:
Kv1.1 mutant mice = experiment: Neural damage in the hippocampus assessed with FluoroJade B staining after systemic treatment; format: in vivo, mouse; details: blood flow suppressor 7-nitroindazole 50 mg/kg IP; blood flow enhancer acetazolamide 30 mg/kg IP
Procedure: Ictal hyperemia and/or ischemia leads to neuronal damage. The contribution of ictal blood flow to neural damage (assessed with Fluorojade B staining) is determined by measuring the neural damage in the hippocampus, as a function of systemic treatment with a blood flow suppressor (e.g., 7-nitroindazole; 50 mg/kg IP) and a blood flow enhancer (e.g., acetazolamide; 30 mg/kg IP).
Ictal hyperemia and/or ischemia leads to neuronal damage. The contribution of ictal blood flow to neural damage is assessed with FluoroJade B staining to measure the neural damage in the hippocampus, as a function of systemic treatment with a blood flow suppressor (7-nitroindazole; 50 mg/kg IP) and enhancer (acetazolamide; 30 mg/kg IP).
Ten minutes before imaging blood flow, drugs will be administered by IP injection at a volume of 0.01 ml per g of body weight. […]
The staining solution is made with 0.01% stock solution of FluoroJade B (Histo-Chem. Inc., Jefferson Ark.) in distilled water (final dye concentration of 0.0004%). […] The tissue representing the hippocampus is then examined using epifluorescence microscopy with blue (450-490 nm) excitation light: the position of the imaging focus is localized by the red Di-I track from the cannula, and neuronal damage is assessed by FluoroJade B staining colored green. […]

seizures = details: in vivo; cited from earlier work
Kv1.1 mutants = details: 30 mg/kg IP; cited from earlier work
[1] = system: C3Heb/FeJ strain of Kv1.1 knockouts; experiment: Status epilepticus induced with kainate, three-stage injection protocol; format: in vivo, mouse
Procedure: A three-stage injection protocol is employed to induce status epilepticus with kainate. Mice are given 10 mg/kg (in pH 7.4 saline) of kainate subcutaneously, after which they begin electroclinical seizure activity. An additional 5 mg/kg is administered 30 minutes after behavioral seizure initiation, followed by another 5 mg/kg dose sc after another 30 minutes. This protocol has previously provided a high survivability rate (greater than 90%) in the C3Heb/FeJ strain of Kv1.1 knockouts, and to moreover sustain the status for at least a 2-hour duration. Behavioral seizure scoring is conducted using a modified Racine scale, and cumulative seizure scores are generated for each animal (a seizure score is given every minute, with the highest numerical value based on the Racine scale; then the cumulative score is generated by adding all the individual scores for each minute of seizure activity).

[2] = kainate 10 mg/kg sc, then 5 mg/kg and 5 mg/kg at 30 minute intervals

| SMILES | neural damage in the hippocampus (FluoroJade B staining) (Kv1.1 mutant mice) | effect on seizures (seizures) | effect on blood flow (Kv1.1 mutants) | duration of sustained status epilepticus [1, 2] [h] | survivability rate [1, 2] | neural damage after kainate-induced status epilepticus (FIGS. 6A-6B) ([1]; mouse, FluoroJade B) |
| --- | --- | --- | --- | --- | --- | --- |
| O=[N+]([O-])c1cccc2cn[nH]c12 [7-nitroindazole] | less neural damage |  |  |  |  |  |
| CC(=O)Nc1nnc(S(N)(=O)=O)s1 [acetazolamide] | increased neural damage | reduce seizures | increased blood flow |  |  |  |
| C=C(C)[C@H]1CN[C@H](C(=O)O)[C@H]1CC(=O)O [kainate] |  |  |  | ≥ 2 | greater than 90% | statistically significant effects of neural damage |
